For data set [1] the following is noted: solid state; cited from earlier work.
The nature of data set [2]: Stability at 50° C. with and without lactose (DHEA formation by HPLC). Type of data set: physicochemical. The conditions noted are these: 1 week at 50° C. The text has this: These conditions were used to stress the formulation in order to predict its long-term stability results.
The primary degradant is dehydroepiandrosterone or DHEA. […] The materials on accelerated storage become more cohesive with time as evidenced by clumping during sample weighing for chemical analysis. […] This is a considerable disadvantage since lactose is the most commonly used inhalation excipient for dry powder formulations. Continuing with the virtually anhydrous form would mean limiting formulations to neat powder or undertaking more comprehensive safety studies to use a novel excipient.

Data set [3] can be described thus: Nebulizer studies (Pari ProNeb Ultra / LC Plus, AS-6 impactor, by-pass collector). The conditions noted are these: 0.12% NaCl; no precipitate during nebulization.
Method: Nebulizer Studies. […] The nebulizer is filled with 5 mL of solution and nebulization is continued until the output became visually insignificant (4½ to 5 min.). Nebulizer solutions are tested using a California Instruments AS-6 6-stage impactor with a USP throat. The impactor is run at 30 L/min for 8 seconds to collect a sample following one minute of nebulization time. At all other times during the experiment, the aerosol is drawn through the by-pass collector at approximately 33 L/min. The collection apparatus, nebulizer, and impactor are rinsed with mobile phase and assayed by HPLC. […] This volume is selected as the practical upper limit for use in a clinical study.

SMILES strings stand for the structures.

As to `C[C@]12CC[C@H](OS(=O)(=O)[O-])CC1=CC[C@@H]1[C@@H]2CC[C@]2(C)C(=O)CC[C@@H]12.[Na+]` [Anhydrous DHEA-S], in data set [1], the hygroscopicity entry is “very hygroscopic”.

As for `CC12CCC3C(CC=C4CC(OS(=O)(=O)[O-])CCC43C)C1CCC2=O.[Na+]` (stereo not drawn) [DHEA-S dihydrate, dehydroepiandrosterone sodium sulfate dihydrate], in data set [2], the color after storage entry was “no change in color”.

Consider `C[C@]12CC[C@H](OS(=O)(=O)[O-])CC1=CC[C@@H]1[C@@H]2CC[C@]2(C)C(=O)CC[C@@H]12.[Na+]` [DHEA-S, sodium dehydroepiandrostenone sulfate], for which the “highest solution concentration for a proof of concept clinical trial formulation” value in data set [3] is listed as “approximately 7.5 mg/mL”.

(Values after US20090087389A1, “DEHYDROEPIAN[…] DIHYDRATE INHALATION COMPOSITIONS AND METHODS” ([…] PHARMACEUTICALS, LLC., priority 2002, published 2009).)
